Test results: patent publication US20260256792A1, “TREATMENT OF CHRONIC SPONTANEOUS URTICARIA BY ADMINISTERING (R)-2-[3-[4-AMINO-3-(2-FLUORO-4-PHENOXY-PHENYL)PYRAZOLO[3,4-D]PYRIMIDIN-1-YL]PIPERIDINE-1-CARBONYL]-4-METHYL-4-[4-(OXETAN-3-YL)PIPERAZIN-1-YL]PENT-2-ENENITRILE” (priority 2023, published 2026)

System: moderate-to-severe chronic spontaneous urticaria (CSU)
Test: Phase 2 CSU study: urticaria activity score over 7 days (UAS7)
Format: in vivo, human
Design: key to UAS7 Median / UAS7 Change from baseline Median / UAS7 change from baseline, Q1 / UAS7 change from baseline, Q3 / UAS7 change from baseline, Max / UAS7 Change from baseline LS Mean (SE): UAS7 points; daily UAS score ranges 0–6 points/day, over 7 days
From the text: The study comprises a 12 week, randomized, double-blind, placebo-controlled, multi-center, dose-ranging efficacy and safety phase, followed by a 40 week open label extension (OLE) phase (see FIG. 1). The study consists of three phases and an optional OLE phase. […] Clinically, CSU is characterized by the spontaneous and recurrent appearance of pruritic hives. The proposed primary endpoints were the UAS7 at Week 12 in EU and EU reference countries and the ISS7 in the US. Regardless of where a participant was from, all assessments were the same. The UAS7 score is a composite score containing both the HSS7 and the ISS7. This allowed a global assessment of the two key components of urticaria: hives and itch. […] The UAS is a validated PRO measure. […] The daily UAS scores range from 0 to 6 point/day. […] Patients were to complete the UAS using the e-diary. […] The following secondary endpoints were to be analyzed using the same approach as for the primary endpoint: • Change from baseline in UAS7 at Week 4 • Change from baseline in UAS7 at Week 12 (for US and US reference countries) • Change from baseline in ISS7 at Week 12 (except US and US reference countries) • Change from baseline in HSS7 at Week 12 The following responder secondary endpoints were to be analyzed using the Cochran-Mantel-Haenszel test adjusted by region: • Proportion of participants with UAS7<6 at Week 12 • Proportion of participants with UAS7=0 at Week 12 Participants who received selected prohibited medications and/or rescue medications were to be considered as non-responders for time points after the medication usage. For other participants, all available data including those collected during the off-treatment period were to be used to determine the responder/non-responder status. Missing data were to be considered as non-responders.

[1] = Week 2, 400 mg TID, ITT population
[2] = Week 2, 400 mg TID, Omalizumab-Naïve
[3] = Week 2, 400 mg TID, Prior Omalizumab Use
[4] = Week 2, 400 mg TID, omalizumab-naive participants
[5] = Week 3, 400 mg BID, ITT population
[6] = Week 3, 400 mg BID, Omalizumab-Naïve
[7] = Week 3, 400 mg BID, Prior Omalizumab Use
[8] = Week 3, 400 mg BID, omalizumab-naive participants
[9] = Week 3, 400 mg QPM, ITT population
[10] = Week 3, 400 mg QPM, Omalizumab-Naïve
[11] = Week 3, 400 mg QPM, Prior Omalizumab Use
[12] = Week 3, 400 mg QPM, omalizumab-naive participants
[13] = Week 3, 400 mg TID, ITT population
[14] = Week 3, 400 mg TID, Omalizumab-Naïve

SMILES: CC(C)(C=C(C#N)C(=O)N1CCC[C@@H](n2nc(-c3ccc(Oc4ccccc4)cc3F)c3c(N)ncnc32)C1)N1CCN(C2COC2)CC1 [rilzabrutinib, (R)-2-[3-[4-amino-3-(2-fluoro-4-phenoxy-phenyl)pyrazolo[3,4-d]pyrimidin-1-yl]piperidine-1-carbonyl]-4-methyl-4-[4-(oxetan-3-yl)piperazin-1-yl]pent-2-enenitrile]
- OR for rilzabrutinib vs. placebo, UAS7 reduction of 10 points or more [1]: 5.982
- RRD (%) for rilzabrutinib vs. placebo, UAS7 reduction of 10 points or more [1]: 40.6 %
- Responder, UAS7 reduction from baseline of 10 points or more [1]: 28 (68.3) n (%)
- UAS7 Change from baseline Mean (SD) [2]: −13.69 (11.66)
- UAS7 Change from baseline Median [2]: −11.00
- UAS7 Mean (SD) [2]: 15.65 (10.66)
- UAS7 Median [2]: 14.00
- UAS7 Percent change from baseline Mean (SD) [2]: −45.70 (36.18) %
- UAS7 Percent change from baseline Median [2]: −46.67%
- UAS7 Change from baseline Mean (SD) [3]: −24.69 (11.86)
- UAS7 Change from baseline Median [3]: −22.50
- UAS7 Mean (SD) [3]: 8.33 (9.77)
- UAS7 Median [3]: 5.50
- UAS7 Percent change from baseline Mean (SD) [3]: −75.38 (23.12) %
- UAS7 Percent change from baseline Median [3]: −73.96%
- Non-responder, UAS7 reduction from baseline of 10 points or more [4]: 13 (37.1) n (%)
- OR for rilzabrutinib vs. placebo, UAS7 reduction of 10 points or more [4]: 5.505
- RRD (%) for rilzabrutinib vs. placebo, UAS7 reduction of 10 points or more [4]: 39.0 %
- Responder, UAS7 reduction from baseline of 10 points or more [4]: 22 (62.9) n (%)
- Non-responder, UAS7 reduction from baseline of 10 points or more [5]: 20 (48.8) n (%)
- OR for rilzabrutinib vs. placebo, UAS7 reduction of 10 points or more [5]: 2.109
- RRD (%) for rilzabrutinib vs. placebo, UAS7 reduction of 10 points or more [5]: 18.0 %
- Responder, UAS7 reduction from baseline of 10 points or more [5]: 21 (51.2) n (%)
- UAS7 Change from baseline Mean (SD) [6]: −12.02 (10.63)
- UAS7 Change from baseline Median [6]: −9.00
- UAS7 Mean (SD) [6]: 17.71 (11.91)
- UAS7 Median [6]: 16.80
- UAS7 Percent change from baseline Mean (SD) [6]: −41.11 (35.05) %
- UAS7 Percent change from baseline Median [6]: −32.14%
- UAS7 Change from baseline Mean (SD) [7]: −15.81 (16.39)
- UAS7 Change from baseline Median [7]: −15.00
- UAS7 Mean (SD) [7]: 17.19 (13.86)
- UAS7 Median [7]: 18.58
- UAS7 Percent change from baseline Mean (SD) [7]: −44.47 (44.78) %
- UAS7 Percent change from baseline Median [7]: −41.73%
- Non-responder, UAS7 reduction from baseline of 10 points or more [8]: 18 (51.4) n (%)
- OR for rilzabrutinib vs. placebo, UAS7 reduction of 10 points or more [8]: 2.057
- RRD (%) for rilzabrutinib vs. placebo, UAS7 reduction of 10 points or more [8]: 17.2 %
- Responder, UAS7 reduction from baseline of 10 points or more [8]: 17 (48.6) n (%)
- Non-responder, UAS7 reduction from baseline of 10 points or more [9]: 22 (57.9) n (%)
- OR for rilzabrutinib vs. placebo, UAS7 reduction of 10 points or more [9]: 1.663
- RRD (%) for rilzabrutinib vs. placebo, UAS7 reduction of 10 points or more [9]: 11.7 %
- Responder, UAS7 reduction from baseline of 10 points or more [9]: 16 (42.1) n (%)
- UAS7 Change from baseline Mean (SD) [10]: −9.10 (8.78)
- UAS7 Change from baseline Median [10]: −7.00
- UAS7 Mean (SD) [10]: 22.01 (9.00)
- UAS7 Median [10]: 22.00
- UAS7 Percent change from baseline Mean (SD) [10]: −28.09 (25.63) %
- UAS7 Percent change from baseline Median [10]: −26.67%
- UAS7 Change from baseline Mean (SD) [11]: −22.00 (NC)
- UAS7 Change from baseline Median [11]: −22.00
- UAS7 Mean (SD) [11]: 19.00 (NC)
- UAS7 Median [11]: 19.00
- UAS7 Percent change from baseline Mean (SD) [11]: −53.66 (NC) %
- UAS7 Percent change from baseline Median [11]: −53.66%
- Non-responder, UAS7 reduction from baseline of 10 points or more [12]: 22 (59.5) n (%)
- OR for rilzabrutinib vs. placebo, UAS7 reduction of 10 points or more [12]: 1.665
- RRD (%) for rilzabrutinib vs. placebo, UAS7 reduction of 10 points or more [12]: 11.4 %
- Responder, UAS7 reduction from baseline of 10 points or more [12]: 15 (40.5) n (%)
- Non-responder, UAS7 reduction from baseline of 10 points or more [13]: 14 (34.1) n (%)
- OR for rilzabrutinib vs. placebo, UAS7 reduction of 10 points or more [13]: 3.444
- RRD (%) for rilzabrutinib vs. placebo, UAS7 reduction of 10 points or more [13]: 31.4 %
- Responder, UAS7 reduction from baseline of 10 points or more [13]: 27 (65.9) n (%)
- UAS7 Change from baseline Mean (SD) [14]: −13.97 (12.14)
- UAS7 Change from baseline Median [14]: −14.00
- UAS7 Mean (SD) [14]: 15.37 (9.87)
- UAS7 Median [14]: 14.00
